We go through four compounds from PubChem BioAssay AID1963831 (Molecular Pharmacology Branch, DTP, NCI, 2024).

For orientation: viability, T/C means the result in the treated group divided by that in the control group, in per cent.
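Also: spheroids exposed to compounds for seven days; 100% = DMSO vehicle control viability.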

The first test concerns 889142-216-R-J1-PDC complex spheroid viability. Nature of the test: Anticancer human tumor 889142-216-R-J1-PDC patient-derived bladder carcinoma cell line growth inhibition [POLQ]. The settings on record: second compound 0.316 µM; first compound 0.316 µM; stronger effect = lower value. In outline: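 Complex spheroid viability model combining PDC tumour cells with endothelial (HUVEC) and MSC stromal cells. Novobiocin, ART-558 or RP6685 were tested singly and in combination with standard and investigational anticancer drugs. Each was titrated in half-log steps from near clinical Cmax, or from 10 microM where Cmax was unknown.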
For the compound `Nc1ccn(C2OC(CO)C(O)C2(F)F)c(=O)n1` (configuration not stated) + COC1C(OC(N)=O)C(O)C(Oc2ccc3c(O)c(NC(=O)c4ccc(O)c(CC=C(C)C)c4)c(=O)oc3c2C)OC1(C)C, the viability, T/C is 44.5%.
Still for that read-out and setting: under `O=c1[nH]cc(F)c(=O)[nH]1` + COC1C(OC(N)=O)C(O)C(Oc2ccc3c(O)c(NC(=O)c4ccc(O)c(CC=C(C)C)c4)c(=O)oc3c2C)OC1(C)C stands 95.1%.

Still in this test, the particulars now being: second compound 0.316 µM; first compound 1 µM; stronger effect = lower value.
For the compound `C=CCn1c(=O)c2cnc(Nc3ccc(N4CCN(C)CC4)cc3)nc2n1-c1cccc(C(C)(C)O)n1` + COC1C(OC(N)=O)C(O)C(Oc2ccc3c(O)c(NC(=O)c4ccc(O)c(CC=C(C)C)c4)c(=O)oc3c2C)OC1(C)C, the viability, T/C was 54.7%.
On the same count and under the same terms, under `CNCc1ccc(-c2[nH]c3cc(F)cc4c3c2CCNC4=O)cc1` + COC1C(OC(N)=O)C(O)C(Oc2ccc3c(O)c(NC(=O)c4ccc(O)c(CC=C(C)C)c4)c(=O)oc3c2C)OC1(C)C stands 122%; under `Nc1ccn(C2OC(CO)C(O)C2(F)F)c(=O)n1` (configuration not stated) + COC1C(OC(N)=O)C(O)C(Oc2ccc3c(O)c(NC(=O)c4ccc(O)c(CC=C(C)C)c4)c(=O)oc3c2C)OC1(C)C, 38.9%.
The same measure, in the same setting: then `O=c1[nH]cc(F)c(=O)[nH]1` + COC1C(OC(N)=O)C(O)C(Oc2ccc3c(O)c(NC(=O)c4ccc(O)c(CC=C(C)C)c4)c(=O)oc3c2C)OC1(C)C, with 83.6%.

Staying with this test, now noted: second compound 0.316 µM; first compound 3.16 µM; stronger effect = lower value.
Turning to `CNCc1ccc(-c2[nH]c3cc(F)cc4c3c2CCNC4=O)cc1` + COC1C(OC(N)=O)C(O)C(Oc2ccc3c(O)c(NC(=O)c4ccc(O)c(CC=C(C)C)c4)c(=O)oc3c2C)OC1(C)C, the viability, T/C is 97.6%.
The same measure, in the same setting: then `Nc1ccn(C2OC(CO)C(O)C2(F)F)c(=O)n1` (configuration not stated) + COC1C(OC(N)=O)C(O)C(Oc2ccc3c(O)c(NC(=O)c4ccc(O)c(CC=C(C)C)c4)c(=O)oc3c2C)OC1(C)C, with 43.5%.
Same read-out and setting: under `O=c1[nH]cc(F)c(=O)[nH]1` + COC1C(OC(N)=O)C(O)C(Oc2ccc3c(O)c(NC(=O)c4ccc(O)c(CC=C(C)C)c4)c(=O)oc3c2C)OC1(C)C stands 85.8%.

Staying with this test, now noted: second compound 0.316 µM; first compound 10 µM; stronger effect = lower value.
As for `CNCc1ccc(-c2[nH]c3cc(F)cc4c3c2CCNC4=O)cc1` + COC1C(OC(N)=O)C(O)C(Oc2ccc3c(O)c(NC(=O)c4ccc(O)c(CC=C(C)C)c4)c(=O)oc3c2C)OC1(C)C, the viability, T/C is 58.2%.
On the same count and under the same terms, under `Nc1ccn(C2OC(CO)C(O)C2(F)F)c(=O)n1` (configuration not stated) + COC1C(OC(N)=O)C(O)C(Oc2ccc3c(O)c(NC(=O)c4ccc(O)c(CC=C(C)C)c4)c(=O)oc3c2C)OC1(C)C stands 31.8%; under `O=c1[nH]cc(F)c(=O)[nH]1` + COC1C(OC(N)=O)C(O)C(Oc2ccc3c(O)c(NC(=O)c4ccc(O)c(CC=C(C)C)c4)c(=O)oc3c2C)OC1(C)C, 72.6%.

Still in this test, the particulars now being: second compound 1 µM; first compound 0.00316 µM; stronger effect = lower value.
Regarding `C=CCn1c(=O)c2cnc(Nc3ccc(N4CCN(C)CC4)cc3)nc2n1-c1cccc(C(C)(C)O)n1` + COC1C(OC(N)=O)C(O)C(Oc2ccc3c(O)c(NC(=O)c4ccc(O)c(CC=C(C)C)c4)c(=O)oc3c2C)OC1(C)C, the viability, T/C was 112%.

Staying with this test, now noted: second compound 1 µM; first compound 0.01 µM; stronger effect = lower value.
For `C=CCn1c(=O)c2cnc(Nc3ccc(N4CCN(C)CC4)cc3)nc2n1-c1cccc(C(C)(C)O)n1` + COC1C(OC(N)=O)C(O)C(Oc2ccc3c(O)c(NC(=O)c4ccc(O)c(CC=C(C)C)c4)c(=O)oc3c2C)OC1(C)C, the viability, T/C was 110%.

Still in this test, the particulars now being: second compound 1 µM; first compound 0.0316 µM; stronger effect = lower value.
With `C=CCn1c(=O)c2cnc(Nc3ccc(N4CCN(C)CC4)cc3)nc2n1-c1cccc(C(C)(C)O)n1` + COC1C(OC(N)=O)C(O)C(Oc2ccc3c(O)c(NC(=O)c4ccc(O)c(CC=C(C)C)c4)c(=O)oc3c2C)OC1(C)C, the viability, T/C is 113%.
The same measure, in the same setting: under `CNCc1ccc(-c2[nH]c3cc(F)cc4c3c2CCNC4=O)cc1` + COC1C(OC(N)=O)C(O)C(Oc2ccc3c(O)c(NC(=O)c4ccc(O)c(CC=C(C)C)c4)c(=O)oc3c2C)OC1(C)C stands 96.8%.
Same read-out and setting: then `Nc1ccn(C2OC(CO)C(O)C2(F)F)c(=O)n1` (configuration not stated) + COC1C(OC(N)=O)C(O)C(Oc2ccc3c(O)c(NC(=O)c4ccc(O)c(CC=C(C)C)c4)c(=O)oc3c2C)OC1(C)C, with 64.5%; and `O=c1[nH]cc(F)c(=O)[nH]1` + COC1C(OC(N)=O)C(O)C(Oc2ccc3c(O)c(NC(=O)c4ccc(O)c(CC=C(C)C)c4)c(=O)oc3c2C)OC1(C)C, with 106%.

Staying with this test, now noted: second compound 1 µM; first compound 0.1 µM; stronger effect = lower value.
On to `C=CCn1c(=O)c2cnc(Nc3ccc(N4CCN(C)CC4)cc3)nc2n1-c1cccc(C(C)(C)O)n1` + COC1C(OC(N)=O)C(O)C(Oc2ccc3c(O)c(NC(=O)c4ccc(O)c(CC=C(C)C)c4)c(=O)oc3c2C)OC1(C)C, for which the viability, T/C was 89.5%.
Same read-out and setting: under `CNCc1ccc(-c2[nH]c3cc(F)cc4c3c2CCNC4=O)cc1` + COC1C(OC(N)=O)C(O)C(Oc2ccc3c(O)c(NC(=O)c4ccc(O)c(CC=C(C)C)c4)c(=O)oc3c2C)OC1(C)C stands 92.6%.
Still for that read-out and setting: under `Nc1ccn(C2OC(CO)C(O)C2(F)F)c(=O)n1` (configuration not stated) + COC1C(OC(N)=O)C(O)C(Oc2ccc3c(O)c(NC(=O)c4ccc(O)c(CC=C(C)C)c4)c(=O)oc3c2C)OC1(C)C stands 58.3%; under `O=c1[nH]cc(F)c(=O)[nH]1` + COC1C(OC(N)=O)C(O)C(Oc2ccc3c(O)c(NC(=O)c4ccc(O)c(CC=C(C)C)c4)c(=O)oc3c2C)OC1(C)C, 123%.

The same test, now with this note: second compound 1 µM; first compound 0.316 µM; stronger effect = lower value.
As for `C=CCn1c(=O)c2cnc(Nc3ccc(N4CCN(C)CC4)cc3)nc2n1-c1cccc(C(C)(C)O)n1` + COC1C(OC(N)=O)C(O)C(Oc2ccc3c(O)c(NC(=O)c4ccc(O)c(CC=C(C)C)c4)c(=O)oc3c2C)OC1(C)C, the viability, T/C is 68.6%.
On the same count and under the same terms, under `CNCc1ccc(-c2[nH]c3cc(F)cc4c3c2CCNC4=O)cc1` + COC1C(OC(N)=O)C(O)C(Oc2ccc3c(O)c(NC(=O)c4ccc(O)c(CC=C(C)C)c4)c(=O)oc3c2C)OC1(C)C stands 103%; under `Nc1ccn(C2OC(CO)C(O)C2(F)F)c(=O)n1` (configuration not stated) + COC1C(OC(N)=O)C(O)C(Oc2ccc3c(O)c(NC(=O)c4ccc(O)c(CC=C(C)C)c4)c(=O)oc3c2C)OC1(C)C, 45.5%.
Still for that read-out and setting: then `O=c1[nH]cc(F)c(=O)[nH]1` + COC1C(OC(N)=O)C(O)C(Oc2ccc3c(O)c(NC(=O)c4ccc(O)c(CC=C(C)C)c4)c(=O)oc3c2C)OC1(C)C, with 92.5%.

The same test, now with this note: second compound 1 µM; first compound 1 µM; stronger effect = lower value.
On to `C=CCn1c(=O)c2cnc(Nc3ccc(N4CCN(C)CC4)cc3)nc2n1-c1cccc(C(C)(C)O)n1` + COC1C(OC(N)=O)C(O)C(Oc2ccc3c(O)c(NC(=O)c4ccc(O)c(CC=C(C)C)c4)c(=O)oc3c2C)OC1(C)C, for which the viability, T/C was 57%.
With `CNCc1ccc(-c2[nH]c3cc(F)cc4c3c2CCNC4=O)cc1` + COC1C(OC(N)=O)C(O)C(Oc2ccc3c(O)c(NC(=O)c4ccc(O)c(CC=C(C)C)c4)c(=O)oc3c2C)OC1(C)C, the viability, T/C is 94.3%.
On to `Nc1ccn(C2OC(CO)C(O)C2(F)F)c(=O)n1` (configuration not stated) + COC1C(OC(N)=O)C(O)C(Oc2ccc3c(O)c(NC(=O)c4ccc(O)c(CC=C(C)C)c4)c(=O)oc3c2C)OC1(C)C, for which the viability, T/C is 42.1%.
Same read-out and setting: then `O=c1[nH]cc(F)c(=O)[nH]1` + COC1C(OC(N)=O)C(O)C(Oc2ccc3c(O)c(NC(=O)c4ccc(O)c(CC=C(C)C)c4)c(=O)oc3c2C)OC1(C)C, with 78.8%.

Staying with this test, now noted: second compound 1 µM; first compound 3.16 µM; stronger effect = lower value.
Take `CNCc1ccc(-c2[nH]c3cc(F)cc4c3c2CCNC4=O)cc1` + COC1C(OC(N)=O)C(O)C(Oc2ccc3c(O)c(NC(=O)c4ccc(O)c(CC=C(C)C)c4)c(=O)oc3c2C)OC1(C)C: the viability, T/C is 82.6%.
On to `Nc1ccn(C2OC(CO)C(O)C2(F)F)c(=O)n1` (configuration not stated) + COC1C(OC(N)=O)C(O)C(Oc2ccc3c(O)c(NC(=O)c4ccc(O)c(CC=C(C)C)c4)c(=O)oc3c2C)OC1(C)C, for which the viability, T/C was 37.6%.
Turning to `O=c1[nH]cc(F)c(=O)[nH]1` + COC1C(OC(N)=O)C(O)C(Oc2ccc3c(O)c(NC(=O)c4ccc(O)c(CC=C(C)C)c4)c(=O)oc3c2C)OC1(C)C, the viability, T/C was 77.6%.

Staying with this test, now noted: second compound 1 µM; first compound 10 µM; stronger effect = lower value.
`CNCc1ccc(-c2[nH]c3cc(F)cc4c3c2CCNC4=O)cc1` + COC1C(OC(N)=O)C(O)C(Oc2ccc3c(O)c(NC(=O)c4ccc(O)c(CC=C(C)C)c4)c(=O)oc3c2C)OC1(C)C: the viability, T/C is 84.2%.
Take `Nc1ccn(C2OC(CO)C(O)C2(F)F)c(=O)n1` (configuration not stated) + COC1C(OC(N)=O)C(O)C(Oc2ccc3c(O)c(NC(=O)c4ccc(O)c(CC=C(C)C)c4)c(=O)oc3c2C)OC1(C)C: the viability, T/C was 30.3%.
Same read-out and setting: then `O=c1[nH]cc(F)c(=O)[nH]1` + COC1C(OC(N)=O)C(O)C(Oc2ccc3c(O)c(NC(=O)c4ccc(O)c(CC=C(C)C)c4)c(=O)oc3c2C)OC1(C)C, with 67.8%.

The test is the same for the next values; noted with them: second compound 3.16 µM; first compound 0.00316 µM; stronger effect = lower value.
For `C=CCn1c(=O)c2cnc(Nc3ccc(N4CCN(C)CC4)cc3)nc2n1-c1cccc(C(C)(C)O)n1` + COC1C(OC(N)=O)C(O)C(Oc2ccc3c(O)c(NC(=O)c4ccc(O)c(CC=C(C)C)c4)c(=O)oc3c2C)OC1(C)C, the viability, T/C is 90.2%.

The test is the same for the next values; noted with them: second compound 3.16 µM; first compound 0.01 µM; stronger effect = lower value.
As to `C=CCn1c(=O)c2cnc(Nc3ccc(N4CCN(C)CC4)cc3)nc2n1-c1cccc(C(C)(C)O)n1` + COC1C(OC(N)=O)C(O)C(Oc2ccc3c(O)c(NC(=O)c4ccc(O)c(CC=C(C)C)c4)c(=O)oc3c2C)OC1(C)C, the viability, T/C was 99.6%.

The test is the same for the next values; noted with them: second compound 3.16 µM; first compound 0.0316 µM; stronger effect = lower value.
In the case of `C=CCn1c(=O)c2cnc(Nc3ccc(N4CCN(C)CC4)cc3)nc2n1-c1cccc(C(C)(C)O)n1` + COC1C(OC(N)=O)C(O)C(Oc2ccc3c(O)c(NC(=O)c4ccc(O)c(CC=C(C)C)c4)c(=O)oc3c2C)OC1(C)C, the viability, T/C is 85.4%.
Same read-out and setting: then `CNCc1ccc(-c2[nH]c3cc(F)cc4c3c2CCNC4=O)cc1` + COC1C(OC(N)=O)C(O)C(Oc2ccc3c(O)c(NC(=O)c4ccc(O)c(CC=C(C)C)c4)c(=O)oc3c2C)OC1(C)C, with 89.2%.
Same read-out and setting: under `Nc1ccn(C2OC(CO)C(O)C2(F)F)c(=O)n1` (configuration not stated) + COC1C(OC(N)=O)C(O)C(Oc2ccc3c(O)c(NC(=O)c4ccc(O)c(CC=C(C)C)c4)c(=O)oc3c2C)OC1(C)C stands 64.5%.
Consider `O=c1[nH]cc(F)c(=O)[nH]1` + COC1C(OC(N)=O)C(O)C(Oc2ccc3c(O)c(NC(=O)c4ccc(O)c(CC=C(C)C)c4)c(=O)oc3c2C)OC1(C)C, for which the viability, T/C was 112%.
